Experimental data as given in patent US5686486A, “4-hydroxy-benzopyran-2-ones and 4-hydroxy-cycloalkyl[b]pyran-2-ones useful to treat retroviral infections” (priority 1995, dated 1997).
Where “and” joins values, the source holds several entries; their conditions need not be identical. Equal entries are not always repeated. Structures can show the parent of a compound that is named as a salt.

Legend:
HIV-1 protease [1] = target: T1, HIV-1 protease (Human immunodeficiency virus type 1 group M subtype B, UniProt P04585); experiment: biochemical; details: for inhibition at 100 µM: read-out: HIV-1 Protease % Inhib, dose 100.000 uM; for inhibition at 0.123 µM: read-out: HIV-1 Protease % Inhib, dose 0.123 uM; for inhibition at 0.37 µM: read-out: HIV-1 Protease % Inhib, dose 0.370 uM; for inhibition at 1.1 µM: read-out: HIV-1 Protease % Inhib, dose 1.100 uM; for inhibition at 3.3 µM: read-out: HIV-1 Protease % Inhib, dose 3.300 uM; for inhibition at 10 µM: read-out: HIV-1 Protease % Inhib, dose 10.000 uM; for inhibition at 30 µM: read-out: HIV-1 Protease % Inhib, dose 30.000 uM
Method in brief: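 Biotinylated, FITC-labeled peptide substrate (20 μl of 0.2 μM) incubated with HIV-1 protease (10 μl of 0.1 μM) and compound in 0.1 M sodium acetate pH 5.5, 1.0 M NaCl, 0.05% NP-40, 1 h, room temperature, dark. Streptavidin beads then capture uncleaved substrate; filtered labeled product read by fluorescence, giving percent inhibition.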

HIV-1 protease [2] = target: T1, HIV-1 protease; experiment: biochemical; details: read-out: HIV-1 FITC KI
Method in brief: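 Ki from two-fold serial inhibitor dilutions (24–48 concentrations) with 40 nM HIV-1 protease stock and 200 μM substrate stock, 90 min at room temperature; stopped with avidin beads. Reference inhibitor run in parallel; Ki by nonlinear least-squares fit.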

O=c1oc2c(c(O)c1C(Cc1ccccc1)Cc1ccccc1)CCCCCC2 [Example 136, 3-(1-Benzyl-2-phenyl-ethyl)-4-hydroxy-5,6,7,8,9,10-hexahydro-cycloocta[b]pyran-2-one]
inhibition at 0.41 µM (HIV-1 protease [1]; read-out: HIV-1 Protease % Inhib, dose 0.410 uM): 56.6%
inhibition at 1.23 µM (HIV-1 protease [1]; read-out: HIV-1 Protease % Inhib, dose 1.230 uM): 80.1%
inhibition at 3.7 µM (HIV-1 protease [1]; read-out: HIV-1 Protease % Inhib, dose 3.700 uM): 90.1%
inhibition at 11 µM (HIV-1 protease [1]; read-out: HIV-1 Protease % Inhib, dose 11.000 uM): 92.4%
inhibition at 33 µM (HIV-1 protease [1]; read-out: HIV-1 Protease % Inhib, dose 33.000 uM): 91.6%
inhibition at 100 µM (HIV-1 protease [1]): 103%
Ki (HIV-1 protease [2]): 108 nM

Cc1sc(C(c2c(O)c3c(oc2=O)CCCCCC3)C2CC2)cc1CO (stereo not drawn) [Example 394]
inhibition at 0.123 µM (HIV-1 protease [1]): 72.7%
inhibition at 0.37 µM (HIV-1 protease [1]): 102%
inhibition at 1.1 µM (HIV-1 protease [1]): 109%
inhibition at 3.3 µM (HIV-1 protease [1]): 115%
inhibition at 10 µM (HIV-1 protease [1]): 120%
inhibition at 30 µM (HIV-1 protease [1]): 123%
Ki (HIV-1 protease [2]): 6.04 nM

CCC(c1ccccc1)c1c(O)c2c(oc1=O)CCCC2 (stereo not drawn) [Example 109, 5,6,7,8-Tetrahydro-4-hydroxy-3-(1-phenylpropyl)-2H-l-benzopyran-2-one]
inhibition at 1 µM (HIV-1 protease [1]; read-out: HIV-1 Protease % Inhib, dose 1.000 uM): < 10%
inhibition at 10 µM (HIV-1 protease [1]): 71.9%
inhibition at 100 µM (HIV-1 protease [1]): 92%
Ki (HIV-1 protease [2]): 1090 nM

O=c1oc2c(c(O)c1C(c1cccc(NS(=O)(=O)c3cccc(N(CCO)CCO)c3)c1)C1CC1)CCCCCC2 (stereo not drawn) [Example 355 (Second Title Compound), N-[3-[Cyclopropyl(5,6,7,8,9,10-hexahydro-4-hydroxy-2-oxo-2H-cycloocta[b]pyran-3-yl)methyl]phenyl]-3-[(bis-(2-ethanol))amino]-benzenesulfonamide]
inhibition at 0.123 µM (HIV-1 protease [1]): 112%
inhibition at 0.37 µM (HIV-1 protease [1]): 111%
inhibition at 1.1 µM (HIV-1 protease [1]): 107%
inhibition at 3.3 µM (HIV-1 protease [1]): 110%
inhibition at 10 µM (HIV-1 protease [1]): 110%
inhibition at 30 µM (HIV-1 protease [1]): 108%
Ki (HIV-1 protease [2]): 1.06 nM

CCCC(c1cccc(NS(=O)(=O)c2cn(C)cn2)c1)c1c(O)c2c(oc1=O)CCCCCC2 (stereo not drawn) [Example 431, 1H-imidazole-4-sulfonamide, N-[3-[1-(5,6,7,8,9,10-hexahydro-4-hydroxy-2-oxo-2H-cycloocta[b]pyran-3-yl)butyl]phenyl]-1-methyl-]
inhibition at 0.123 µM (HIV-1 protease [1]): 109%
inhibition at 0.37 µM (HIV-1 protease [1]): 109%
inhibition at 1.1 µM (HIV-1 protease [1]): 109%
inhibition at 3.3 µM (HIV-1 protease [1]): 112%
inhibition at 10 µM (HIV-1 protease [1]): 105%
inhibition at 30 µM (HIV-1 protease [1]): 106%
Ki (HIV-1 protease [2]): 0.89 nM

O=c1oc2c(c(O)c1C(c1cccc(NS(=O)(=O)c3ccc(NS(=O)(=O)c4ccccc4)cc3)c1)C1CC1)CCCCCC2 (stereo not drawn) [Example 349, N-[3-[Cyclopropyl(5,6,7,8,9,10-hexahydro-4-hydroxy-2-oxo-2H-cycloocta[b]pyran-3-yl)methyl]phenyl]4-[(phenylsulfonyl)amino]-benzenesulfonamide]
inhibition at 0.37 µM (HIV-1 protease [1]): 38.4%
inhibition at 1.1 µM (HIV-1 protease [1]): 69%
inhibition at 3.3 µM (HIV-1 protease [1]): 86.4%
inhibition at 10 µM (HIV-1 protease [1]): 96.7%
inhibition at 30 µM (HIV-1 protease [1]): 88.5%
Ki (HIV-1 protease [2]): 33.8 nM

O=c1oc2c(c(O)c1C1(c3ccccc3)CCC1)CCCCCC2 [Example 483, 3-(Phenylcyclobutyl)-5,6,7,8,9,10-hexahydro-4-hydroxy-2H-cycloocta[b]pyran-2-one]
inhibition at 0.37 µM (HIV-1 protease [1]): 44.8%
inhibition at 1.1 µM (HIV-1 protease [1]): 73.2%
inhibition at 3.3 µM (HIV-1 protease [1]): 85.2%
inhibition at 10 µM (HIV-1 protease [1]): 69.5%
inhibition at 30 µM (HIV-1 protease [1]): 76.7%
Ki (HIV-1 protease [2]): 33 nM

O=C(COCc1ccccc1)Nc1cccc(S(=O)(=O)Nc2cccc(C(c3c(O)c4c(oc3=O)CCCCCC4)C3CC3)c2)c1 (stereo not drawn) [Example 408, 3-(Benzyloxyacetylamino)-N-[3-[cyclopropyl(5,6,7,8,9,10-hexahydro-4-hydroxy-2-oxo-2H-cycloocta[b]pyran-3-yl)methyl]phenyl]-benzenesulfonamide]
inhibition at 0.123 µM (HIV-1 protease [1]): 38.4%
inhibition at 0.37 µM (HIV-1 protease [1]): 70.1%
inhibition at 1.1 µM (HIV-1 protease [1]): 88.9%
inhibition at 3.3 µM (HIV-1 protease [1]): 98.5%
inhibition at 10 µM (HIV-1 protease [1]): 91.7%
inhibition at 30 µM (HIV-1 protease [1]): 107%
Ki (HIV-1 protease [2]): 14 nM

O=c1oc2c(c(O)c1C(c1cccc(NS(=O)(=O)c3ccc(-c4ccon4)s3)c1)C1CC1)CCCCCC2 (stereo not drawn) [Example 347, N-[3-[Cyclopropyl(5,6,7,8,9,10-hexahyro-4-hydroxy-2-oxo-2H-cycloocta[b]pyran-3-yl)methyl]phenyl]-5-(3-isoxazolyl)-2-thiophenesulfonamide]
inhibition at 0.123 µM (HIV-1 protease [1]): 79.8%
inhibition at 0.37 µM (HIV-1 protease [1]): 92.2%
inhibition at 1.1 µM (HIV-1 protease [1]): 103%
inhibition at 3.3 µM (HIV-1 protease [1]): 100%
inhibition at 10 µM (HIV-1 protease [1]): 102%
inhibition at 30 µM (HIV-1 protease [1]): 103%
Ki (HIV-1 protease [2]): 2.5 nM

CCc1ccc(S(=O)(=O)Nc2cccc(C(c3c(O)c4c(oc3=O)CCCCCC4)C3CC3)c2)cc1 (stereo not drawn) [Example 341, N-[3-[Cyclopropyl(5,6,7,8,9,10-hexahydro-4-hydroxy-2-oxo-2H-cycloocta[b]pyran-3-yl)methyl]phenyl]-4-ethyl-benzenesulfonamide]
inhibition at 0.123 µM (HIV-1 protease [1]): 59.4%
inhibition at 0.37 µM (HIV-1 protease [1]): 92.8%
inhibition at 1.1 µM (HIV-1 protease [1]): 110%
inhibition at 3.3 µM (HIV-1 protease [1]): 107%
inhibition at 10 µM (HIV-1 protease [1]): 120%
inhibition at 30 µM (HIV-1 protease [1]): 122%
Ki (HIV-1 protease [2]): 5 nM

COCCC1CCCCCc2c1oc(=O)c(C(c1ccccc1)C1CC1)c2O (stereo not drawn) [Example 178, 3-(Cyclopropylphenylmethyl)-5,6,7,8,9,10-hexahydro-4-hydroxy-10-(2-methoxyethyl)-2H-cycloocta[b]pyran-2-one]
inhibition at 0.123 µM (HIV-1 protease [1]): 16.2%
inhibition at 0.37 µM (HIV-1 protease [1]): 45.5%
inhibition at 1.1 µM (HIV-1 protease [1]): 86.4%
inhibition at 3.3 µM (HIV-1 protease [1]): 98.8%
inhibition at 10 µM (HIV-1 protease [1]): 105%
inhibition at 30 µM (HIV-1 protease [1]): 103%
Ki (HIV-1 protease [2]): 27 nM

O=c1oc2c(c(O)c1C(c1cccc(NS(=O)(=O)c3ccccc3)c1)C1CC1)CCCCCC2 (stereo not drawn) [Example 319, N-[3-[Cyclopropyl(5,6,7,8,9,10-hexahydro-4-hydroxy-2-oxo-2H-cycloocta[b]pyran-3-yl)methyl]phenyl]-benzenesulfonamide]
inhibition at 0.123 µM (HIV-1 protease [1]): 67%
inhibition at 0.37 µM (HIV-1 protease [1]): 84.2%
inhibition at 1.1 µM (HIV-1 protease [1]): 93.1%
inhibition at 3.3 µM (HIV-1 protease [1]): 94.3%
inhibition at 10 µM (HIV-1 protease [1]): 102%
inhibition at 30 µM (HIV-1 protease [1]): 101%
Ki (HIV-1 protease [2]): 4.3 nM and 3.3 nM and 2.1 nM

CC(C)(C)OC(=O)N[C@@H](Cc1c[nH]cn1)C(=O)Nc1cccc(C(c2c(O)c3c(oc2=O)CCCCCC3)C2CC2)c1 (single isomer, unassigned) [Example 241, Carbamic acid, [2-[[3-(R or S)-[Cyclopropyl(5,6,7,8,9,10-hexahydro-4-hydroxy-2-oxo-2H-cycloocta[b]pyran-3-yl)methyl]phenyl]amino]-1-(S)-(1H-imidazol-4-ylmethyl)-2-oxoethyl]-, 1,1 dimethyl ethyl ester]
HIV-1 Protease % Inhib (HIV-1 protease [1]; dose 0.123 uM): 81.78%
HIV-1 Protease % Inhib (HIV-1 protease [1]; dose 0.370 uM): 91.77%
HIV-1 Protease % Inhib (HIV-1 protease [1]; dose 1.100 uM): 98.65%
HIV-1 Protease % Inhib (HIV-1 protease [1]; dose 3.300 uM): 101.51%
HIV-1 Protease % Inhib (HIV-1 protease [1]; dose 10.000 uM): 110.04%
HIV-1 Protease % Inhib (HIV-1 protease [1]; dose 30.000 uM): 104.34%
Ki (HIV-1 protease [2]): 1.32 nM and 1.9 nM

O=c1oc2c(c(O)c1C(c1cccc(NS(=O)(=O)c3cccc(S(=O)(=O)NCc4ccccc4)c3)c1)C1CC1)CCCCCC2 (stereo not drawn) [Example 412, N-[3-[Cyclopropyl(5,6,7,8,9,10-hexahydro-4-hydroxy-2-oxo-2H-cycloocta[b]pyran-3-yl)-methyl]phenyl]-(3-N-benzylbenzenesulfonyl)benzenesulfonamide]
inhibition at 0.123 µM (HIV-1 protease [1]): 37.8%
inhibition at 0.37 µM (HIV-1 protease [1]): 69.2%
inhibition at 1.1 µM (HIV-1 protease [1]): 92%
inhibition at 3.3 µM (HIV-1 protease [1]): 102%
inhibition at 10 µM (HIV-1 protease [1]): 99%
inhibition at 30 µM (HIV-1 protease [1]): 102%
Ki (HIV-1 protease [2]): 9.2 nM

O=c1oc2c(c(O)c1C(c1cccc(NS(=O)(=O)C=Cc3ccccc3)c1)C1CC1)CCCCCC2 (stereo not drawn) [Example 320, N-[3-[Cyclopropyl(5,6,7,8,9,10-hexahydro-4-hydroxy-2-oxo-2H-cycloocta[b]pyran-3-yl)methyl]phenyl]-2-phenyl-ethenesulfonamide]
inhibition at 0.123 µM (HIV-1 protease [1]): 66.4%
inhibition at 0.37 µM (HIV-1 protease [1]): 78.5%
inhibition at 1.1 µM (HIV-1 protease [1]): 98.2%
inhibition at 3.3 µM (HIV-1 protease [1]): 102%
inhibition at 10 µM (HIV-1 protease [1]): 99.3%
inhibition at 30 µM (HIV-1 protease [1]): 99%
Ki (HIV-1 protease [2]): 3.8 nM and 2.1 nM

N#Cc1ccc(S(=O)(=O)Nc2cccc(C(c3c(O)c4c(oc3=O)CCCCCC4)C3CC3)c2)cc1 (stereo not drawn) [Example 402, Sodium Salt of 4-Cyano-N-[3-[cyclopropyl(5,6,7,8,9,10-hexahydro4-hydroxy-2-oxo-2H-cycloocta[b]pyran-3-yl)methyl]phenyl]-benzenesulfonamide]
HIV-1 Protease % Inhib (HIV-1 protease [1]; dose 0.123 uM): 103.69%
HIV-1 Protease % Inhib (HIV-1 protease [1]; dose 0.370 uM): 106.4%
HIV-1 Protease % Inhib (HIV-1 protease [1]; dose 1.100 uM): 110.07%
HIV-1 Protease % Inhib (HIV-1 protease [1]; dose 3.300 uM): 100.22%
HIV-1 Protease % Inhib (HIV-1 protease [1]; dose 10.000 uM): 98.03%
HIV-1 Protease % Inhib (HIV-1 protease [1]; dose 30.000 uM): 98.47%
Ki (HIV-1 protease [2]): 0.62 nM

Cc1c(Cl)cccc1S(=O)(=O)Nc1cccc(C(c2c(O)c3c(oc2=O)CCCCCC3)C2CC2)c1 (stereo not drawn) [Example 311, 3-Chloro-N-[3-[cyclopropyl(5,6,7,8,9,10-hexahydro-4-hydroxy-2-oxo-2H-cycloocta[b]pyran-3-yl)methyl]phenyl]-2-methyl-benzenesulfonamide]
inhibition at 0.123 µM (HIV-1 protease [1]): 20.8%
inhibition at 0.37 µM (HIV-1 protease [1]): 71.2%
inhibition at 1.1 µM (HIV-1 protease [1]): 86.4%
inhibition at 3.3 µM (HIV-1 protease [1]): 92%
inhibition at 10 µM (HIV-1 protease [1]): 99.5%
inhibition at 30 µM (HIV-1 protease [1]): 99.5%
Ki (HIV-1 protease [2]): 6.33 nM
